Laboratory results published in ChEMBL document CHEMBL1201862, “PubChem BioAssay data set” (2004).
The source made the active and inactive calls.

Assays:
[1] = target: Eukaryotic translation initiation factor 4H (Homo sapiens, UniProt Q15056); assay: human eIF4H binding inhibitors, primary screen, translation initiation inhibitor project, biochemical, uHTS, fluorescence polarization (AID 2012)
[2] = target: Polyadenylate-binding protein 1 (Homo sapiens, UniProt P11940); assay: PABP poly(A) RNA binding inhibitors, primary screen, biochemical, fluorescence polarization, uHTS (AID 2014)
[3] = target: Luciferin 4-monooxygenase (Photinus pyralis, UniProt P08659); assay: firefly luciferase enzyme inhibitors, dose response, biochemical, luminescence (AID 1891)
[4] = Luminescence Cell-Based Dose Confirmation HTS to Identify Inhibitors of Platelet Dense Granule Release. [Related pubchem assays: 1663 (Primary HTS), 1678 (Summary of Project)]; type: functional
[5] = target: Metabotropic glutamate receptor 4 (Rattus norvegicus, UniProt P31423); assay: Modulation of the Metabotropic Glutamate Receptor mGluR4: Rat PAM Potency. [Related pubchem assays (depositor defined):AID2437, AID2807]; type: functional
[6] = target: T1, Scavenger receptor class B member 1 (Mus musculus, UniProt Q61009); assay: inhibitors of SR-BI mediated HDL lipid uptake, dose response, ldlA[mSR-BI] cells, fluorescence, cherry pick (AID 493194); type: functional, cell-based;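 note: cellular uptake of fluorescent DiI-labeled HDL measured as cell fluorescence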
T1 sequence (Q61009 whole entry): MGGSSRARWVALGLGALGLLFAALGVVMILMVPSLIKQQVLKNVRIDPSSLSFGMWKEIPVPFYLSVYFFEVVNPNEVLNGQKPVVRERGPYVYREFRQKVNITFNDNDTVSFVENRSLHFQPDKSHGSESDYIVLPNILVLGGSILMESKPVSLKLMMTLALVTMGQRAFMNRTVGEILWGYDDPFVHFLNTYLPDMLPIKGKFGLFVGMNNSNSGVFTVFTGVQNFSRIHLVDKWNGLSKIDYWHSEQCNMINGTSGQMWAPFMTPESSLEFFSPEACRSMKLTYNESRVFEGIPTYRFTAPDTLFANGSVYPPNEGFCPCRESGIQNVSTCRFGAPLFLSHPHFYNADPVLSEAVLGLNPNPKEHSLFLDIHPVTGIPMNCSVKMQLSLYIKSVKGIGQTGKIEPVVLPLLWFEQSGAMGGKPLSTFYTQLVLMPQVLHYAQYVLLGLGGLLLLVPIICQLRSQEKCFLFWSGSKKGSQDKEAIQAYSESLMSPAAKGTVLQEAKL

[7] = target: T2, Voltage-gated N-type calcium channel alpha-1B subunit/Amyloid beta A4 precursor protein-binding family A member 1 (Homo sapiens, UniProt Q00975+Q02410); assay: disruptors of Mint-PDZ/N-type channel peptide interaction – biochemical, HTRF, set 2, SAR follow-up (AID 434980); type: functional
[8] = target: T2, Voltage-gated N-type calcium channel alpha-1B subunit/Amyloid beta A4 precursor protein-binding family A member 1; assay: disruptors of Mint-PDZ/N-type channel peptide interaction – biochemical, HTRF, SAR follow-up (AID 2489); type: functional
[9] = cytotoxicity toward DRD oncogenic fibroblasts, dose response, cell-based, non-viral oncogenic, luminescence (AID 1934); type: functional; details: Homo sapiens
BJ [10] = assay: cytotoxicity toward BJ-TERT fibroblasts, dose response, cell-based, RAS-independent, luminescence (AID 1933); type: functional; details: Homo sapiens
BJ [11] = assay: cytotoxicity toward Ras-transformed BJeLR fibroblasts, dose response, cell-based, alamar blue fluorescence, cherrypicked samples (AID 2631); type: functional; details: Homo sapiens;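 note: confirmatory dose-response assay in RAS-dependent BJ fibroblasts engineered with TERT, LT and ST, with cytotoxicity read by fluorescence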
Streptococcus = assay: Group A Streptococcus viability loss, dose response, counter-screen for streptokinase expression inhibitor project, luminescence, BacTiterGlo (AID 1915); type: functional, organism-based;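 note: potency for reduction of bacterial viability or growth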
INS1 = assay: beta cell apoptosis inhibitors, cytokine rescue, dose response, luminescence, retest (AID 449756); type: functional, cell-based; details: Rattus norvegicus;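 note: cell death triggered by IL-1 beta plus TNF-alpha plus IFN-gamma mixture; protective hits raise ATP signal compared with cytokine alone wells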
[12] = THP-1 cell cytotoxicity, dose response, cytotoxicity control for non-replicating M. tuberculosis project (AID 489025); type: functional
BJ [13] = assay: cells; type: functional, cell-based; details: Homo sapiens
Vero = assay: cells; type: functional; details: Chlorocebus sabaeus
BJ [14] = assay: cytotoxicity toward BJ-TERT-LT-ST fibroblasts, dose response, cell-based, RAS-independent, luminescence (AID 1935); type: functional; details: Homo sapiens;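 note: BJ fibroblasts immortalized with TERT plus LT and ST oncogenes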
cells [15] = type: functional, cell-based
cells [16] = type: functional
[17] = Vero E6 cell cytotoxicity, dose response, cytotoxicity control for non-replicating M. tuberculosis project, secondary assay (AID 492998); type: functional, VeroE6; details: Vero C1008
[18] = system: Streptococcus sp. 'group A'; assay: growth inhibition of control SK(-) GAS strain, dose response, counter-screen for streptokinase expression inhibitor project, luminescence, kanamycin, BacTiterGlo, confirmation (AID 1900); type: functional, organism-based
cells [19] = type: functional, cell-based; remark: listed apart in the source
[20] = HepG2 cell cytotoxicity, dose response, cytotoxicity control for non-replicating M. tuberculosis project (AID 489018); type: functional; details: Mycobacterium tuberculosis
[21] = target: T3, Microphthalmia-associated transcription factor (Homo sapiens, UniProt O75030); assay: TRPM1 promoter luciferase signal decrease, dose response, MITF inhibitor project, cell-based, SK-MEL-5, cherry-picked, set 3 (AID 493073); type: functional
T3 sequence (O75030 whole entry): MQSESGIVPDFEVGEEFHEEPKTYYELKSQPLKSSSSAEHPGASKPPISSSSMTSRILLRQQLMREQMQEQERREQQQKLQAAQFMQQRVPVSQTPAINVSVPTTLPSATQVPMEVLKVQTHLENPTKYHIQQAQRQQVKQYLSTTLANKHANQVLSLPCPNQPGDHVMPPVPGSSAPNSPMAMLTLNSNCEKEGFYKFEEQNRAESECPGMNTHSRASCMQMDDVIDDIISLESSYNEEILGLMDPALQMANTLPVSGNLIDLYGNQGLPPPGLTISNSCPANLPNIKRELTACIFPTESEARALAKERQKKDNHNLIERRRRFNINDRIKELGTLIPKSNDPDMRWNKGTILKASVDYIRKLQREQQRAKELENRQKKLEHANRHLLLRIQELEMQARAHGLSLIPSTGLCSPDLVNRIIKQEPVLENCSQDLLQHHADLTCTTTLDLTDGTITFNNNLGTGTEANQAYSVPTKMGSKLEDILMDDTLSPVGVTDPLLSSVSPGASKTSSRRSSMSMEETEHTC

T2 sequence (Q00975 whole entry): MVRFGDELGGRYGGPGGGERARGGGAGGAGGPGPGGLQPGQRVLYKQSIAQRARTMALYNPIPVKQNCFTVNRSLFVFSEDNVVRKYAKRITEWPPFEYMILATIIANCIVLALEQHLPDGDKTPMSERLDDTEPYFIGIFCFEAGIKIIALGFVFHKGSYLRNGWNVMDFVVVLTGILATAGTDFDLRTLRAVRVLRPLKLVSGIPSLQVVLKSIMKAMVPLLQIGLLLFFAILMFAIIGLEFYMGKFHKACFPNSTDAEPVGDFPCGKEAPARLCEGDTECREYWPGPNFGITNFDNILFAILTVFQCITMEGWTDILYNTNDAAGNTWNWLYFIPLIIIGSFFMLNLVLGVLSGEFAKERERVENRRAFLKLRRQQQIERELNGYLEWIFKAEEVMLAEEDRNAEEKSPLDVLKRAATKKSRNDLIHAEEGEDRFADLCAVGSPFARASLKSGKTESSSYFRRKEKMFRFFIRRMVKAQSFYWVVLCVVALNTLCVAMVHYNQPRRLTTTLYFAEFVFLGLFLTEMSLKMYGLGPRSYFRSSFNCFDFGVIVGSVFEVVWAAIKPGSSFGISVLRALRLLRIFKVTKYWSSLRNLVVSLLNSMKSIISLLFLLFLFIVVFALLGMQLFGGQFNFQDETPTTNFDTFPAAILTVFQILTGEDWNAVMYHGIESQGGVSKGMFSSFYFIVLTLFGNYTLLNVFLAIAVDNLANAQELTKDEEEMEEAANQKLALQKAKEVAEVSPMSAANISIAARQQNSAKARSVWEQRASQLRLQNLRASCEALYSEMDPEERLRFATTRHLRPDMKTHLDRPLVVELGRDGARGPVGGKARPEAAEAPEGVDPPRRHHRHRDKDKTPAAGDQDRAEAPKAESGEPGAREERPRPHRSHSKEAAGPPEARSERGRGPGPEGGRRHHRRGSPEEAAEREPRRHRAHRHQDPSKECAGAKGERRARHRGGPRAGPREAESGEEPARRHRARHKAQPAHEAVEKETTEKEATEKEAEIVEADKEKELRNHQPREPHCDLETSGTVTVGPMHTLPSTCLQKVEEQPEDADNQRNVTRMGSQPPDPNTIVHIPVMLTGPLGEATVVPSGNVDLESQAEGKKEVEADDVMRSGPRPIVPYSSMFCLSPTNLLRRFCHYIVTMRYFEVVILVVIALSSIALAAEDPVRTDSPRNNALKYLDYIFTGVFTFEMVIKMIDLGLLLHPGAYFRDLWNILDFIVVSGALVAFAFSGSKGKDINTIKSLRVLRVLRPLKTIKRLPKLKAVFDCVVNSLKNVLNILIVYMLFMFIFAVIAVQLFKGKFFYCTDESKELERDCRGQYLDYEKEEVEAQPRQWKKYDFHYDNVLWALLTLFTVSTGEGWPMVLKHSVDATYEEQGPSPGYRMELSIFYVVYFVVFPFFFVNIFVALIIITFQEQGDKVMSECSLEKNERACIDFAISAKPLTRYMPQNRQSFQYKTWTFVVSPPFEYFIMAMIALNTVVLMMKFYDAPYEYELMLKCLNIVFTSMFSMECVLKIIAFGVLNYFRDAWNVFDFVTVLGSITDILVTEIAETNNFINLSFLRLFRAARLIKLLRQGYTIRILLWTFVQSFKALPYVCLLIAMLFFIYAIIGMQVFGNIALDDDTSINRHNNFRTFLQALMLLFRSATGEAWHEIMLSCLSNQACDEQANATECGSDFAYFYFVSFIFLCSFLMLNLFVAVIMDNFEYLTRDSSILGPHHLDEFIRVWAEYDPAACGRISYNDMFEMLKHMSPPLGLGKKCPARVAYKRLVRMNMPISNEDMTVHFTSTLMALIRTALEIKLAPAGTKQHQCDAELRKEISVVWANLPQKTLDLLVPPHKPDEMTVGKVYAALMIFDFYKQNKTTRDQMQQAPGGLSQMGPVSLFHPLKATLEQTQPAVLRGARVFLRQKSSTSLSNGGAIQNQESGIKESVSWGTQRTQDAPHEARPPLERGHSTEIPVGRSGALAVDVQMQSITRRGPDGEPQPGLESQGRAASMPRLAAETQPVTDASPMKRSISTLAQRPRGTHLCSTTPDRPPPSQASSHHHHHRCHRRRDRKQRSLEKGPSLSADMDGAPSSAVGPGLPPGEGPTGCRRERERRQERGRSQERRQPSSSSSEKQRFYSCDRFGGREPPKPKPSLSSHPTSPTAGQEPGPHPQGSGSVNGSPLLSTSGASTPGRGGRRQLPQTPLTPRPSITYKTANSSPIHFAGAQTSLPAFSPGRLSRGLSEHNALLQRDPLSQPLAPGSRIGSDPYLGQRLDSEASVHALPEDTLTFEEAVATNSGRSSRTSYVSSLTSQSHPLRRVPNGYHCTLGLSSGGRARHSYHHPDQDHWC
T2 sequence (Q02410 whole entry): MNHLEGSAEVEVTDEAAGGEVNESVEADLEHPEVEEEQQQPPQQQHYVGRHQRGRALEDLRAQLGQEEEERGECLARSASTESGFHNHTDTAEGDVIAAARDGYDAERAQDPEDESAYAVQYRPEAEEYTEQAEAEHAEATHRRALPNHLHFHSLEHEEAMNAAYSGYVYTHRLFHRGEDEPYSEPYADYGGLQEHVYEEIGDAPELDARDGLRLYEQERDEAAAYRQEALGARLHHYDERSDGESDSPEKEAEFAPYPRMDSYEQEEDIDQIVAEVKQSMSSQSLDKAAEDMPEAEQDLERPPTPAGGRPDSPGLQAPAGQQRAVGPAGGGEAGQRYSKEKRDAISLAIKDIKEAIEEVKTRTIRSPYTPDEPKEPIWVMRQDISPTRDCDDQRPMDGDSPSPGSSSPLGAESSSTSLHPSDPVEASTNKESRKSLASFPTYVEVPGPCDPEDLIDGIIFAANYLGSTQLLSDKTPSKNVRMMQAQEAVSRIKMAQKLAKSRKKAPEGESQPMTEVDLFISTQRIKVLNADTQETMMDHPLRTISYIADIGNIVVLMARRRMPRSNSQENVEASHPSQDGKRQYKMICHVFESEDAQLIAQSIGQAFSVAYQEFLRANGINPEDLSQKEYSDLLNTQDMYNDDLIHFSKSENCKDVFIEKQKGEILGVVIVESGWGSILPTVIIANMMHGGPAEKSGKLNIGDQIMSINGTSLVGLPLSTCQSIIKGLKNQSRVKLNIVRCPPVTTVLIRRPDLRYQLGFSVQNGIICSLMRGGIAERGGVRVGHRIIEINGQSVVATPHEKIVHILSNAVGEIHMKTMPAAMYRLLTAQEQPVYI
Chain of Luciferin 4-monooxygenase (P08659 whole entry): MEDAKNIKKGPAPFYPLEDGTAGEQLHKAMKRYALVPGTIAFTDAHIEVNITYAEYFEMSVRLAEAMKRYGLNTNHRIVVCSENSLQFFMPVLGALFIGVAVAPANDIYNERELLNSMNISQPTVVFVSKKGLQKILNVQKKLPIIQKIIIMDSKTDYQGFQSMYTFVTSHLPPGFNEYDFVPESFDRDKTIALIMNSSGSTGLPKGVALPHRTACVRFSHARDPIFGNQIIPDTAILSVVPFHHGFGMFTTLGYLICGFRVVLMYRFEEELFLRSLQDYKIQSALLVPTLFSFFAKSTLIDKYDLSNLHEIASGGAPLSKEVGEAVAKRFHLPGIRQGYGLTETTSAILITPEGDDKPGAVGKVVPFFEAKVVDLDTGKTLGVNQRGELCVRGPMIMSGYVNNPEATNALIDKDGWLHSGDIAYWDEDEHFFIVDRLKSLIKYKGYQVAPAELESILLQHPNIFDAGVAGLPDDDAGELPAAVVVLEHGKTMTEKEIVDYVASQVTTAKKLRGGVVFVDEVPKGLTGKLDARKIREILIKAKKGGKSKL
Chain of Polyadenylate-binding protein 1 (P11940 whole entry): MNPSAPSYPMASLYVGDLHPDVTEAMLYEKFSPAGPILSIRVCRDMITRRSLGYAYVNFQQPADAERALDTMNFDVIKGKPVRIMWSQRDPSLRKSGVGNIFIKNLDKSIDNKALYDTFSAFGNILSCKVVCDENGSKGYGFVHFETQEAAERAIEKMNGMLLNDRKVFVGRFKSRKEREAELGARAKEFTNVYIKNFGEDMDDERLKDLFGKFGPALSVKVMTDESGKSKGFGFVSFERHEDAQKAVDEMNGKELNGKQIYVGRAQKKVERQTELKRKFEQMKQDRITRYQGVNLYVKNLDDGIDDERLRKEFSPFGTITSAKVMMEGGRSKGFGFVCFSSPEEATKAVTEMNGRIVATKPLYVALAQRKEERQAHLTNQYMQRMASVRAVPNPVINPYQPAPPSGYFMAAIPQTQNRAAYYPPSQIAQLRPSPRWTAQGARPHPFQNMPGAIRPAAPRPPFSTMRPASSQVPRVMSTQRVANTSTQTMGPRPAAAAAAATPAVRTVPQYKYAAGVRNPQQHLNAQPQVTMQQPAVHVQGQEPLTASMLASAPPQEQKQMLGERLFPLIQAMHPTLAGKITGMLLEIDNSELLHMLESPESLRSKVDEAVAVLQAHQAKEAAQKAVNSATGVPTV

CC(=O)c1cccc(NC(=O)CCc2nnc3ccc(NCc4ccco4)nn23)c1
> 112 µM (not active): EC50 [3] | EC50 [4]
active: IC50 [1] 12 µM | IC50 [2] 77 µM

COc1cc(NC(=O)c2ccccn2)ccc1NC(=O)c1ccccc1Cl
active: EC50 [5] 0.11 µM

CCOc1ccc(CCNC(=O)C2CC(=O)N(c3ccccc3OCC)C2)cc1OCC (centres undefined)
active: AC50 [6] 17.3 µM

CCCOc1ccc(N2C(=O)C3C(C2=O)C2(C)C=CC3(C)O2)cc1 (centres undefined)
active: IC50 [8] 9.66 µM
inactive: IC50 [7] > 56.8 µM

COc1cccc(C(=O)N/N=C(/c2ccccc2)c2ccccn2)c1
active: EC50 [9] 2.82 µM | EC50 (BJ [10]) 2.69 µM | EC50 (BJ [11]) 1.45 µM | EC50 (Streptococcus) 18 µM | AC50 (INS1) 0.745 µM | CC50 [12] 0.844 µM | EC50 (BJ [13]) 4.58 µM | CC50 (Vero) 2.36 µM | EC50 (BJ [14]) 3.26 µM | IC50 (cells [16]) 2.04 µM | CC50 [17] 1.98 µM | EC50 [18] 14.2 µM | EC50 (cells [19]) 9.7 µM | CC50 [20] 11.3 µM | AC50 [21] 5.8 µM
> 350 µM (not active): EC50 (cells [15])
